The nature of assay [1]: Antiischemic effect on bilateral (carotid) artery ligation model, mortality. Format: in vivo, mice. The conditions noted are these: for mortality at 2 mg/kg: 24 h, 30 minutes before 5-minute bilateral carotid ligation, control mortality 70%. The method, then:
1. Antiischemic Effect (On Bilateral Artery Ligation Model)
N. Himori et al.: Cerebral ischemia model with conscious mice involvement of NMDA receptor activation and derangement of learning and memory ability [J. Pharmacol. Meth. 23, 311-327 (1990)].
Carotid arteries of mice (weighing 30 to 32 g each) were exposed bilaterally under anaesthesia by 450 mg/kg of intraperitoneal (i.p.) chloral hydrate. The sympathetic and vagal nerves were separated and a loose ligation was bilaterally placed below the carotid arteries. Both ends of the ligation were led out on the back, behind the ears. Next day, in conscious state both ends of the ligation were pulled resulting in the stopping of blood supply through the carotid arteries. This was maintained for 5 minutes, then released to provide the reperfusion. The number of animals died during the 5-minute period and the following 24 hours were registered. The calculation of significance was performed by the chi^2 test. The pre-treatment with the compound was carried out intraperitoneally (i.p.) 30 minutes before the ligation.
The transient dramatic decrease in the cerebral blood supply, then the starting of reperfusion after stopping the ligation leads to the formation of extremely toxic oxygen free radicals (superoxide radical, hydrogen peroxide). […] [ED50 is the dose (as mg/kg) diminishing the mortality by 50% in comparison to the untreated is control group].

Assay [2] in a line: Diazepam-induced anterograde amnesia (passive avoidance). Format: in vivo, NMRI mice. The note with it: for Inhibition of the diazepam-induced amnesia %: 1 hour before learning, diazepam 3 mg/kg i.p.; for antiamnesic activity, in words: diazepam-induced anterograde amnesia, 0.1 and 10 mg/kg p.o. The source says:
2. Diazepam-Induced Anterograde Amnesia C. L. Broekkamp et al.: The comparative effects of benzodiazepines, progabide and PK 9084 on acquisition of passive avoidance in mice [Psychopharmacology (Berlin) 83, 122-125 (1984)]. The memory test was accomplished on NMRI mice weighing 25 to 28 g each by using the passive avoidance, a method based on the genetically determined nyctophilic behavior of rodents. During the learning period, the pre-selected animals (mice entering the dark space from the illuminated space within 30 seconds) were placed in an illuminated space. After entering the dark space, the animal received an electric shock (1 mA for […]) onto its planta within 30 seconds, then the time until entry to the dark space (latency period) was registered. After 24 hours, the animals were placed again in the illuminated space and the time until crossing over to the dark space (retention time=T with a time limit of 300 seconds) was measured. For inducing an anterograde amnesia, the animals were treated intraperitoneally with 3 mg/kg of diazepam 30 minutes before learning. The compounds were administered orally in 0.1 or 10 mg/kg doses, respectively 1 hour before learning. [formula]

In assay [3] the test system is Fe^2+ -Induced Lipid Peroxidation in Brain Homogenate. The experiment in a line: Fe^2+-induced (non-enzymatic) lipid peroxidation in brain homogenate (ANI). Format: biochemical, rat (Hannover-Wistar). The note with it: for IC50: Fe^2+-induced lipid peroxidation, rat brain homogenate, 37° C., 20 minutes, pH 7.4; for antioxidant activity in Fe^2+-induced lipid peroxidation, in words: comparison with idebenone, DL-α-tocopherol or silymarin.
Protocol: Effect on the Fe^2+ -Induced Lipid Peroxidation in Brain Homogenate
After decapitating Hannover-Wistar rats weighing 150-220 g each, the whole brain was homogenized in 9 volumes of ice-cold Krebs-Ringer's buffer containing 15 mM HEPES, (4-(2-hydroxyethyl)-1-piperazinylethanesulfonic acid) (pH 7.4), 140 mM NaCl7 3.6 mM KCl, 1.5 mM CaCl2, 0.7 mM MgCl2, 1.4 mM KH2 PO4 and 10 glucose. Then the protein content of the solution was determined and adjusted to 10 mg/ml concentration.
After adding the inhibitory agent to be tested in a volume of 5 μl to 200 μl of the homogenate, the incubation mixture was incubated at 37° C. for 20 minutes. The Fe^2+ -induced lipid peroxidation was accomplished by adding 5 μl of 8 mM Fe2 (NH4)2 (SO4)2 solution. After passing of the incubation time, the reaction was stopped by adding 1 ml of a stopping solution containing 0.8 M HCl and 12.5% trichloroacetic acid, then the samples were centrifuged at 2000 g in a Janetzki K70 apparatus at 4° C. for 10 minutes.
To a 0.5 ml portion of the supernatant, 1 ml of 1% thiobarbituric acid solution was added, then the samples were placed in a water bath of 100° C. for 20 minutes. The color intensity developed was determined at 535 nm with a Hitachi 150-20 spectrophotometer by using malondialdehyde bis(diethylacetal) as reference compound.
ANI: non-enzymatically (Fe^2+) induced lipid peroxidation test

Assay [4] relates to NADPH-Induced Lipid Peroxidation in Brain Microsomes. The experiment in a line: NADPH-induced (enzymatic) lipid peroxidation in brain microsomes (AEI). Format: biochemical, rat (male Hannover-Wistar). The conditions noted are these: for IC50: NADPH-induced lipid peroxidation, rat brain microsomes, 37° C., 20 minutes, pH 6.8; for inhibition of NADPH-induced lipid peroxidation relative to silymarin (times as strongly): compared with silymarin.
Protocol: Effect on the NADPH-Induced Lipid Peroxidation in Brain Microsomes
Male Hannover-Wistar rats with a body weight of 150-250 g were used for the preparation of microsomes. After decapitation, the whole brain was removed and homogenized in a 10-fold volume of ice-cold 0.25 M saccharose solution. The homogenate was centrifuged in a Hitachi CR 26H equipment at 15000 g at 4° C. for 10 minutes, then the supernatant was collected and centrifuged in a Hitachi SCP 85H apparatus at 78000 g at 4° C. for 60 minutes. After suspending the precipitate in 0.15 M KCl solution, the protein content of the obtained solution was determined and then adjusted to 10 mg/ml concentration. The microsome thus obtained was frozen in a dry ice-acetone mixture and stored at -70° C. until use. The components of the incubation mixture were: 50 mM TRIS-HCl (pH 6.8), 0.2 mM FeCl3, 1 mM KH2 PO4, 0.5 mM ADP, 0.2 mg of microsomes as well as the compound to be tested. The incubation was carried out with a final volume of 1 ml and with an incubation time of 20 minutes at a temperature of 37° C. The lipid peroxidation was induced by adding 0.4 mM NADPH.
The formation of malondialdehyde was determined by using thiobarbituric acid. After stopping the reaction, 1 ml of 1% thiobarbituric acid solution each was weighed to the samples, which were then placed in a water bath of about 100° C. for 10 minutes. Subsequently, the samples were centrifuged at 2000 g in a Janetzki K70 apparatus at 4° C. for 10 minutes. The absorbance values of the colored supernatant were measured at 535 nm in a Hitachi 150-20 spectrophotometer. Malondialdehyde bis(diethylacetal) was used as reference compound.

Assay [5] can be described thus: Antiamnesic activity in rats. Format: in vivo.
Assay [6] in a line: Antiischemic effect after oral administration. Format: in vivo.
Assay [7] is described as follows: Electroshock-induced retrograde amnesia model. The conditions noted are these: oral dose range between 0.1 and 10 mg/kg. Format: in vivo.
A short description of assay [8]: "Focal" ischemia models elicited in one well-determined area of the brain. Format: in vivo.
The nature of assay [9]: Protection against ischemia-induced injury of memory. Format: in vivo. The note with it: oral dose range between 1 and 10 mg/kg.

From US6093720A, “Trans apovincaminic acid ester derivatives” (Richter Gedeon Vegyeszeti GmbH, priority 1995, dated 2000) come the findings set out here.

“And” between values parts separate entries of the source, which are not always exact repeats. Equal entries are not always repeated. “Also recorded” adds a separate entry of the source. Structures can show the parent of a compound that is named as a salt.

The term mortality denotes the share of the test organisms that died. The low end stands for more survivors, the high end for fewer survivors. For orientation: IC50 means the midpoint of a concentration-inhibition curve. Higher therefore signals a need for much substance. Turning to `CC[C@]12C=C(C(=O)OCCOC(=O)c3ccccc3)n3c4c(c5ccccc53)CCN(CCC1)[C@H]42` [Compound 1011036, (-)-trans apovincaminic acid 2-(benzoyloxy)ethyl ester(3α,16β)hydrochloride], the mortality at 2 mg/kg in assay [1] (Mus musculus, ip, 2 mg/kg i.p.) was 50%. Besides, the “Inhibition of the diazepam-induced amnesia %” value in assay [2] (0.1 mg/kg p.o.) was 23%. Besides, the “Inhibition of the diazepam-induced amnesia %” value in assay [2] (10.0 mg/kg p.o.) is reported as 16%. In assay [3], the IC50 was 9.3 µM and < 10 µM; the “antioxidant activity in Fe^2+-induced lipid peroxidation, in words” value is recorded as “about twice as active as idebenone or DL-α-tocopherol”. Besides, in assay [4], the IC50 is 7.7 µM and < 10 µM; the “inhibition of NADPH-induced lipid peroxidation relative to silymarin (times as strongly)” value is “about 20 times”.

In [1] (Mus musculus, ip, 2 mg/kg i.p.), `CCC(=O)OCCOC(=O)C1=C[C@@]2(CC)CCCN3CCc4c(n1c1ccccc41)[C@@H]32` [Compound 1011038, (+)-trans apovincaminic acid 2-(propionyloxy)ethyl ester(3α,16β)hydrochloride] registered a mortality at 2 mg/kg of 60%. The “Inhibition of the diazepam-induced amnesia %” value in [2] (0.1 mg/kg p.o.) came out at 64%. For the same molecule, the “Inhibition of the diazepam-induced amnesia %” value in [2] (10.0 mg/kg p.o.) came to 24%. Further, the “antiamnesic activity, in words” value in assay [2] is “particularly effective”. In assay [3], the IC50 was 8.7 µM and < 10 µM; the “antioxidant activity in Fe^2+-induced lipid peroxidation, in words” value was “about twice as active as idebenone or DL-α-tocopherol”. In addition, in assay [4], the IC50 was 8.4 µM and < 10 µM; the “inhibition of NADPH-induced lipid peroxidation relative to silymarin (times as strongly)” value is “about 20 times”.

As usually defined, the ED50 is the midpoint of the dose-response relation. Higher therefore signals weaker potency. Regarding `CC[C@@]12C=C(C(=O)OCCOC(C)=O)n3c4c(c5ccccc53)CCN(CCC1)[C@@H]42` [Compound 2705279, (-)-trans apovincaminic acid 2-acetoxyethyl ester(3β,16α)monohydrochloride], the “antiamnesic activity, in words” value was “could well be measured in rats” in [5]; “particularly effective; also recorded: significant protective effect in both doses used and an activity by far exceeding that of vinpocetine; also recorded: most active in this field” in assay [2]. In assay [6], the “antiischemic effect, in words” value is reported as “can be measured after oral administration, too”. The molecule also showed a mortality at 2 mg/kg in assay [1] (Mus musculus, ip, 2 mg/kg i.p.) of 10 to 30%. The molecule also returned a 50% effective dose (ED50) in assay [1] (Mus musculus, ip, dose diminishing the mortality by 50% in comparison to the untreated control group) of 0.76 mg/kg. Further, in [1] (bilateral artery ligation, mice, 2 mg/kg i.p.), the “antiischemic activity, in words” value is recorded as “most active”. For the same molecule, the “Inhibition of the diazepam-induced amnesia %” value in assay [2] (0.1 mg/kg p.o.) is on record as 79%; in assay [2] (10.0 mg/kg p.o.) it was 119%. Further, the “antioxidant activity in Fe^2+-induced lipid peroxidation, in words” value in assay [3] was “about twice as active as idebenone or DL-α-tocopherol”. The “protective action, in words” value in assay [7] is reported as “dose-dependent protective action”. Besides, the half-inhibitory concentration (IC50) in assay [4] was 6.3 µM and < 10 µM. Also, the “antioxidant effect in NADPH-induced lipid peroxidation, in words” value in [4] (comparison with reference compounds) is on record as “comparable to that of idebenone”. In assay [4] (summary statement, in vitro and in vivo), the “antioxidant activity compared with idebenone or vinpocetine, in words” value was “surpasses both in vitro and in vivo that of idebenone or vinpocetine”. Further, the “activity on focal ischemia models, in words” value in [8] is “active”. In addition, the “protection against ischemia-induced injury of memory, in words” value in assay [9] is on record as “protected against the ischemia-induced injury of memory”.
